From patent publication US8217035B2, “Pyrimidine derivatives used as PI-3-kinase inhibitors” (Novartis AG, priority 2006, dated 2012) come the findings set out here.

For orientation: inhibition means the share of the control response that was lost under treatment. One may read the EC50 as the concentration at which the effect is half-maximal. A lower EC50 goes with a more potent agent. By IC50 is commonly meant the concentration that gives 50% inhibition.

Structures are written as SMILES. Read-outs that look alike come from different tables or passages of the source.

For assay [1], the system named is Akt^Ser473 phosphorylation in A2780 xenograft tumors. Kind of assay: In vivo target modulation (PK/PD) in A2780 ovarian cancer xenograft tumors (Biological Method 3). Further details: species or system nu/nu mice. The following applies: for inhibition at 60 mg/kg: 60 mg/kg single oral dose; for inhibition at 60 mg/kg / inhibition at 100 mg/kg: A2780 xenograft tumors, read-out: Modulation of Akt^Ser473 phosphorylation (percentage inhibition compared to vehicle); for inhibition at 100 mg/kg: 100 mg/kg single oral dose. From the text: (§1) A2780 ovarian cancer cells obtained from George Coukos (Fox Chase Cancer Center, University of Pennsylvania, Philadelphia, Pa.) were maintained in DMEM (Invitrogen, Inc.) supplemented with 10% heat-inactivated fetal bovine serum with 1% glutamine. Cells were propagated as recommended by the Dr. Coukos and colleagues. Female nu/nu mice (8-12 weeks old, 20-25 g, Charles River) were used for all in vivo pharmacology studies. The mice were housed and maintained in accordance with state and federal guidelines for the humane treatment and care of laboratory animals and received food and water ad libitum. Cancer cells were harvested from mid-log phase cultures using trypsin-EDTA (Invitrogen, Inc.). Five million cells were subcutaneously injected into the right flank of each mouse. Compound treatment was initiated when tumor size reached to 300-400 mm^3 for PK/PD studies and 200-300 mm^3 for efficacy studies. All compound treatment was administrated orally. Tumor volumes were determined by using StudyDirector software.
For PK/PD dose-dependent studies, tumor-bearing mice were given a single oral dose of compound at different concentrations (10, 30, 60 and 100 mg/kg or vehicle) and tumors were resected at 10 hr or 24 hr after dosing. Blood samples were taken by cardiac puncture using a syringe primed with heparin sulfate. Resected tumors were snap frozen on dry ice and pulverized using a liquid nitrogen-cooled cryomortar and pestle, and lysed in cold cell extraction buffer (Biosource) containing protease inhibitor tablet (Complete; EDTA-free, Amersham). Supernatants were taken after centrifugation of tumor lysates at 300×g for 10 min at 4° C. and the protein concentration in each supernatant was determined by BCA (BioRad). An equal amount of protein from each tumor lysate was loaded onto 10% Tris-glycine gels (Invitrogen), for sodiumdoceylsulfate-polyacrylamide gel electrophoresis (SDS-PAGE) after which proteins were transferred from the gel onto PVDF membrane. Membranes were probed with antibodies that recognize phosphoAkt^Ser473 or phosphoAkt^Thr308 (Cell Signaling) followed by secondary goat anti-rabbit IgG conjugated to HRP(Amersham). Positive bands were visualized by enhanced chemiluminescence with X-ray film. Similar procedures were used to determine total AKT in the same tumor lysates to serve as normalization for total protein in each determination. The density of the positive band on the X-ray film was scanned and the target modulation for each compound was expressed as percentage inhibition by each compound compared to vehicle treatment.
(§2) For efficacy studies, A2780 cancer cells (5×10^6 in 100 μl of DMEM culture medium) were injected subcutaneously into the right flank of each nu/nu mouse. […] Tumor growth and animal body weight was measured twice weekly with daily clinical observation to monitor potential toxicities related to the treatment. […] Activation of the PI3K signaling pathway results in the phosphorylation of the downstream signaling molecule Akt at Ser^473 and/or Thr^308. Compound modulation of Akt^Ser473 phosphorylation was examined in A2780 xenograft tumors at time points ranging from 30 min to 36 hr after a single compound dose at 60 or 100 mg/kg.

The test system of assay [2] is A2780 ovarian cancer cells. Nature of the assay: Cellular proliferation in A2780 cells, Cell Titer Glo (Biological Method 4). The format is cell-based. The following applies: Homo sapiens; ovarian cancer cell line A2780. The method in brief:
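Viability after 72 h compound exposure (37 °C, 5% CO2) was read by Cell Titer Glo and an EC50 derived, each condition in duplicate. A2780 ovarian cells had been plated at 1,000 per well in DMEM/10% FBS at least 2 h beforehand.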

Another assay relates to A2780 tumor xenograft. Nature of the assay: Efficacy study in A2780 ovarian cancer xenograft model (Biological Method 3). The format is in vivo, nu/nu mice.
From the text: as §1, §2

Assay [3] concerns pSer473 Akt in A2780 cells. Nature of the assay: pSer473 Akt assay to monitor PI3K pathway in A2780 cells (Biological Method 2, MSD). The following applies: Homo sapiens; inhibition of Akt phosphorylation, A2780 cells. The format is cell-based. The method in brief:
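A2780 ovarian cancer cells in DMEM/10% FBS were treated with compound for 1 h at 37 °C, then lysed. pSer473-Akt and total Akt were measured by MSD electrochemiluminescence immunoassay. The pSer473/total Akt ratio gave % inhibition versus DMSO, from which EC50 was derived.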

Another assay deals with PI3 kinase alpha (Homo sapiens, UniProt P42336). Nature of the assay: PI3K ATP depletion assay (Biological Method 1, Assay 3; KinaseGlo luminescence). The format is biochemical. To be noted: ATP depletion assay; read-out: PI3 Kinase Alpha, IC50. The method, boiled down:
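Compound in DMSO was mixed with 10 nM PI3 kinase and 5 μg/mL phosphatidylinositol, and the reaction was started with 2 μM ATP. It ran to about 50% ATP depletion and was stopped with KinaseGlo.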
For orientation: In Kinase-Glo more light means more ATP remaining.

Where [4] appears, read: 60 mg/kg oral daily, A2780 model.

PI3 kinase alpha, sequence (P42336 whole entry): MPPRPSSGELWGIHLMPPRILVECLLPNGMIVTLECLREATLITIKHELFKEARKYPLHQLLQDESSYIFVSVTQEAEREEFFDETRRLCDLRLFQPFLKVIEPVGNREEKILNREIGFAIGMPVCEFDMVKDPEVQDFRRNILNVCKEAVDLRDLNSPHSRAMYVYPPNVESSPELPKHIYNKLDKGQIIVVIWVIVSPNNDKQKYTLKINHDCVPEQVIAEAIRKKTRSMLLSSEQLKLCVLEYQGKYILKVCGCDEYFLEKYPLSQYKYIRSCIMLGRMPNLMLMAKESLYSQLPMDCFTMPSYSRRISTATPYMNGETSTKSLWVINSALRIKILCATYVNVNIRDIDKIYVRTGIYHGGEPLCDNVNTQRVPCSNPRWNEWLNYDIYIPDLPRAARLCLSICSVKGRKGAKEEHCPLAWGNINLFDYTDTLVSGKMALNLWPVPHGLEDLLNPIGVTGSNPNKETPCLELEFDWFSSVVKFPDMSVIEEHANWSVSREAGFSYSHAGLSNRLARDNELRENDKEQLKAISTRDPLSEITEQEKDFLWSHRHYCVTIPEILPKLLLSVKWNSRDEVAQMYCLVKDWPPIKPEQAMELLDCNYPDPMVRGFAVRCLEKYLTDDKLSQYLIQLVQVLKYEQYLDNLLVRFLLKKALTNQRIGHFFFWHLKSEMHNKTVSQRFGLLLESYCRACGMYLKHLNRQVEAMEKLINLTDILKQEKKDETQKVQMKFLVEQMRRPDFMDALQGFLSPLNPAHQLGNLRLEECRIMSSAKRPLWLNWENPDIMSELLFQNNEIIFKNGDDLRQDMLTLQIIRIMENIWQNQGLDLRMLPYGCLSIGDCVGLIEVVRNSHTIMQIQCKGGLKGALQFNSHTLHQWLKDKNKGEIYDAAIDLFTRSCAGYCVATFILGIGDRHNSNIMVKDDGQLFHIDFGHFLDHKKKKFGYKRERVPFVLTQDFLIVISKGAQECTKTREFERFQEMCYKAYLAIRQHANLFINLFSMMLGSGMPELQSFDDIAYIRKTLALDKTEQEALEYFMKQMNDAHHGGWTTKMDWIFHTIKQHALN
PI3 kinase alpha, sequence (P27986 whole entry partner): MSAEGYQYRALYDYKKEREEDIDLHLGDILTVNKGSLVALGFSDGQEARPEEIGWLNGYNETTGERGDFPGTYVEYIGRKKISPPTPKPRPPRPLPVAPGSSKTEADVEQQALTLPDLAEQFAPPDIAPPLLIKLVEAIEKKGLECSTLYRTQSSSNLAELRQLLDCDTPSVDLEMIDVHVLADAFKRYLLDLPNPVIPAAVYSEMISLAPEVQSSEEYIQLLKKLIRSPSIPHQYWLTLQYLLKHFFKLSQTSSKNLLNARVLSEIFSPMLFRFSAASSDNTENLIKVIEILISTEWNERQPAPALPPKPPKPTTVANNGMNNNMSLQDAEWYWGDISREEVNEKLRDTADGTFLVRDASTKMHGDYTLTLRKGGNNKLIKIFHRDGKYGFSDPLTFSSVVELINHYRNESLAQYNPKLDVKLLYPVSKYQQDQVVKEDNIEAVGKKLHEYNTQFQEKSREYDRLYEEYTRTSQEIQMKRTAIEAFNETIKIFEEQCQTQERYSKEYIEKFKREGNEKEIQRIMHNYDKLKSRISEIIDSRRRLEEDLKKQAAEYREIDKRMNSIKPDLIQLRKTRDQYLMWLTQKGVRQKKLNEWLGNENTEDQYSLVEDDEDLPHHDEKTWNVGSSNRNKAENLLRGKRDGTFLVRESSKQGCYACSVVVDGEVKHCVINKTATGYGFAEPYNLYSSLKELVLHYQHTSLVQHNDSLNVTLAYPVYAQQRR

In the case of `Nc1cc(C(F)(F)F)c(-c2cc(N3CCOCC3)nc(N3CCOCC3)n2)cn1` [Compound 10], the inhibition at 30 mg/kg in assay [1] (Mus musculus, A2780, 30 mg/kg oral b.i.d., read-out: Target inhibition in A2780 tumors, sustained over the whole dosing period) is < 75%. In assay [1] (Mus musculus, 10 hr), the inhibition at 60 mg/kg was > 75%. Besides, in assay [1] (Mus musculus, 10 hr), the inhibition at 100 mg/kg was > 75%. Moreover, the EC50 in assay [2] and in assay [3] was < 1000 nM each time. For the same molecule, the Antitumor activity entry in the assay on A2780 tumor xenograft (30 mg/kg oral b.i.d., A2780 model (FIG. 5)) is “significant antitumor activity”. Moreover, the Tumor growth inhibition in the assay on A2780 tumor xenograft (30 mg/kg oral daily, A2780 model) was 40%; with A2780 tumor xenograft (setting [4]), 70%; in the assay with A2780 tumor xenograft (100 mg/kg oral daily, A2780 model (FIG. 2)) it was “tumor growth stasis”.

In the case of `Nc1ncc(-c2cc(OC3CCOCC3)nc(N3CCOCC3)n2)c(N)n1` [Compound 84], in assay [1] (Mus musculus, 10 hr), the inhibition at 60 mg/kg was 50 to 75%. The EC50 in assay [2] and in assay [3] was < 1000 nM in each case. Moreover, in the assay with A2780 tumor xenograft (setting [4]), the Tumor growth inhibition was < 50%. At PI3 kinase alpha, the IC50 was < 1000 nM.

In the case of `COc1ccc(Nc2cc(-c3cnc(N)nc3)nc(N3CCOCC3)n2)cn1` [Compound 91], the “Duration of target modulation (50% inhibition)” value in assay [1] (60 mg/kg, A2780 tumors) amounted to 8 h. The inhibition at 100 mg/kg in assay [1] (Mus musculus, 8 hr) was > 50%. In addition, the EC50 in assay [2] and in assay [3] was < 1000 nM each time. For the same molecule, the Tumor growth inhibition entry in the assay with A2780 tumor xenograft (10 mg/kg oral twice daily, A2780 tumors (FIG. 1)) was “no inhibitory activity”; with A2780 tumor xenograft (60 mg/kg oral twice daily, A2780 tumors (FIG. 1)) it was 50%.

As for `Cc1c(Nc2cnc3ccccc3c2)nc(N2CCOCC2)nc1-c1cnc(N)nc1` [Compound 103], the inhibition at 100 mg/kg in assay [1] (Mus musculus, 8 hr) was < 50%. Also, the EC50 in assay [2] and in assay [3] was < 1000 nM in each case. For the same molecule, the IC50 on PI3 kinase alpha was < 1000 nM.
